Columns and labels:
[1] = test system: Human osteoblasts (SaM-1); test: Calcification of osteoblasts (Ca content of extracellular matrix, OCPC method); format: cell-based; conditions: DHNA 10^-7 M to 10^-5 M, 2 mM α-glycerophosphoric acid, culturing for 32 days, vs 0.1% DMSO control (FIG. 4)
Method: Human osteoblasts (SaM-1), which had been cultured from long bone periosteum of a person obtained during fracture surgery, were employed. […] SaM-1 has been known to promote calcification in the presence of 2 mM of α-glycerophosphoric acid in a 1α, 25 (OH)2D3 concentration-dependent manner (Koshihara, Y. et al.: Biochem. Biophys. Res. commun., 145: 651-657, 1987).
The above-obtained SaM-1 cells of 18 PDL (population doubling level) were inoculated into a 12-well plate, and cultured until the cells reached a confluent state. Subsequently, α-glycerophosphoric acid, which is a calcification promoting agent, was added to the resultant culture broth such that the α-glycerophosphoric acid content became 2 mM. DHNA (10^−7 M to 10^−5 M) was added to the culture broth, followed by culturing for 32 days. For a control, DMSO (a solvent) was added to the culture broth such that the DMSO content became 0.1%. […]
The Ca content of extracellular matrix was quantified by use of a kit (Calcium C Test Wako) based on the o-cresolphthalein complexone method (OCPC method) (Gitleman, H. J.: Anal. Biochem., 18: 520-531, 1967).
After completion of culturing, the resultant cells were washed with a Hanks' solution. […] Thereafter, the resultant reaction mixture was subjected to measurement by use of an absorbance meter (570 nm) (FIG. 4).

ICR male mice = test: Animal model with osteoporosis induced by FK-506; format: in vivo; conditions: DHNA 75 μg/kg orally every day, FK-506 1 mg/kg i.p. for 10 weeks, vs control group (FK 506 (+)) (FIG. 5)
Method: As has been known, administration of FK-506, which is known as an immunosuppressive agent, to an animal induces osteoporosis-like conditions (J. Hard Tissue Biology, 103-107, 10 (2), 2001). […] FK-506 (1 mg/kg) was intraperitoneally administered to ICR male mice (eight weeks old) for 10 consecutive weeks. During the 10-week FK-506 administration, a feed (CRF-1, product of Oriental Yeast Co., Ltd.) was arbitrarily ingested into the mice, and DHNA (75 μg/kg) which had been suspended in a 1% aqueous DMSO (dimethyl sulfoxide) solution was orally administered to each of the mice every day.

SMILES: O=C(O)c1cc(O)c2ccccc2c1O [DHNA, 1,4-dihydroxy-2-naphthoic acid]
- degree of calcification (amount of Ca) [1]: promotes calcification in a concentration-dependent manner
- bone density (ICR male mice): significantly higher than that of the mice in the control group
